These results are taken from paper PMC7062083, “Metabolite identification, tissue distribution, excretion and preclinical pharmacokinetic studies of ET-26-HCl, a new analogue of etomidate” (Royal Society Open Science, 2020).

Some results are limits rather than exact numbers.

The nature of the data set: Metabolic stability in monkey liver microsomes. In kind it is in vitro ADME. The protocol:
Samples were analysed by LC–MS/MS as mentioned above.2.1 CLint, in vitro=0.693/t1/2/Cprotein, 2.2 CLint, in vivo=CLint, in vitro×Houston×LW/1000 2.3 andCLhep in vivo=HBF × fu ×CLint, in vivo/HBF + fu ×CLint, in vivo. Where Cprotein is microsomal protein concentration (mg ml^−1); Houston is Houston factor (45 mg of microsomal protein g^−1 liver); LW is liver weight (g) (per species); HBF is hepatic blood flow (ml min^−1) (per species); fu (two places) and later is unbound fraction (fu = 1 − %protein binding).
For orientation: Microsomes from liver hold many membrane-bound enzymes, among them those of drug oxidation.

Turning to `COCCOC(=O)c1cncn1[C@H](C)c1ccccc1.Cl` [ET-26-HCl, (R)-2-methoxyethyl1-(1-phenylethyl)-1H-imidazole-5-carboxylate hydrochloride], where the note is “monkey liver microsomes”, the “CLint, in vitro” value is recorded as 2216 ml min g^−1 protein; the “metabolic stability (in words)” value is listed as “not metabolically stable”; the “time to complete disappearance of ET-26-HCl” value is no more than 15 min. Besides, where the note is “monkey liver microsomes, Cprotein 0.33 mg ml^−1”, the “CLint, in vitro” value was determined as 2216 ± 43.0 ml min^−1 g^−1 protein. Also, for the setting “monkey, from liver microsomes”, the “extrapolated CLhep in vivo” value is 168 ± 0.05 mL/min.
